Assay results from patent publication US9757456B2, “Super-saturating delivery vehicles for poorly water-soluble pharmaceutical and cosmetic active ingredients and suppression of crystallization of pharmaceutical active ingredients” (Nanologica AB, priority 2010, dated 2017).
≈ marks a conversion by molar mass, not a printed value.

Legend:
[1] = cited from earlier work
[2] = cited from earlier work; remark: listed apart in the source
[3] = Dissolution / kinetic release of atazanavir from nanoporous silica in simulated intestine fluid (SIF); type: physicochemical
Description: In order to compare the concentrations of atazanavir crystallite and atazanavir in nanoporous silica, the UV absorbance scans of atazanavir in SIF with the time are shown in FIG. 1. […] The atazanavir super-saturating solutions from the nanoporous silica. […] Particularly, the super-saturating state produced from NFM-1 could be maintain for 24 hours, and the other two could maintain for 7 hours.
For nanoporous material NFM-1 loaded with ATV, the dissolution rate appears to decrease with increased particle concentration as a percentage of loaded amount. […] In the case of the highest particle concentration, a supersaturation state is maintained for 4 hours after which the dissolution decreases rapidly due to crystallization of the drug in the water bath in which the dissolution study is conducted.

[4] = Solubility and release of Retinol / Retinol 50C in water; type: physicochemical; conditions: 37° C., 150 rpm, after 20 days release from a nanoporous material
Description: As a mesoporous silica material, AMS-6 was selected in this example, having an Ia3d cubic pore structures, and a small pore diameter (around 4 nm average). Prior to the loading, AMS-6 was thermally treated in order to increase the hydrophobic of the inner/outer surface. 10 grams of calcined AMS-6 were placed in an oven and heated at 600° C. during 12 hours. The selected active ingredient was Retinol 50C. Retinol 50C is a formulation comprising pure Retinol and an excipient namely Polisorbate 20 used as stabilizer. […] The percentage of each component in the formulation is 50% in weight.

SMILES | log P [1] | reduction in plasma concentration (Cmin) ([2]; co-administered with proton pump inhibitors) | bioavailability ([2]; in vivo) | half-life ([2]; in vivo) | solubility in SIF (in words) ([3]; UV absorbance over time) | solubility at 4 h ([3]; simulated intestine fluid (SIF), fassgf or other biorelevant, thermodynamic from solid, after 4 hours, higher concentration of NFM-1-ATV particles, read-out: maximum solubility) | concentration of Retinol dissolved in water [4]
COC(=O)N[C@H](C(=O)N[C@@H](Cc1ccccc1)[C@@H](O)CN(Cc1ccc(-c2ccccn2)cc1)NC(=O)[C@@H](NC(=O)OC)C(C)(C)C)C(C)(C)C [Atazanavir] | 5.20 | ≤ 78% | 60-68% | 6.5 h | very low | 0.254 µg/mL (≈ 0.36 µM) | 
CC1=C(/C=C/C(C)=C/C=C/C(C)=C/CO)C(C)(C)CCC1 [Retinol] |  |  |  |  |  |  | 3400 ng/mL
